Test results published in US11071731B2, “Allosteric modulators of the mu opioid receptor” (Chiromics, LLC, priority 2017, dated 2021).

Columns and labels:
[1] = molecular target: T1, mu opioid receptor (MOR) (Homo sapiens, UniProt P35372); test: PathHunter β-arrestin recruitment assay, PAM mode with EC20 endomorphin-1; format: cell-based
Summary of the method: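 β-Arrestin recruitment to the receptor was tracked by chemiluminescent β-galactosidase activity from complementing fragments (ED on receptor, EA on β-arrestin). Per-compound outputs were EC50 and percent maximal response.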

[2] = molecular target: T1, mu opioid receptor (MOR); test: Hit Hunter cAMP signaling assay (adenylyl cyclase inhibition), PAM mode with EC20 endomorphin-1; format: cell-based
[3] = maximal response for β-arrestin recruitment
[4] = β-arrestin recruitment, read-out: β-arr. EC50
[5] = adenylyl cyclase inhibition, read-out: cAMP EC50
[6] = maximal response for adenylyl cyclase inhibition
[7] = cAMP EC50, adenylyl cyclase inhibition
[8] = maximal response, β-arrestin recruitment
[9] = maximal response, adenylyl cyclase inhibition

T1 sequence (P35372 whole entry, the tested form may be a part): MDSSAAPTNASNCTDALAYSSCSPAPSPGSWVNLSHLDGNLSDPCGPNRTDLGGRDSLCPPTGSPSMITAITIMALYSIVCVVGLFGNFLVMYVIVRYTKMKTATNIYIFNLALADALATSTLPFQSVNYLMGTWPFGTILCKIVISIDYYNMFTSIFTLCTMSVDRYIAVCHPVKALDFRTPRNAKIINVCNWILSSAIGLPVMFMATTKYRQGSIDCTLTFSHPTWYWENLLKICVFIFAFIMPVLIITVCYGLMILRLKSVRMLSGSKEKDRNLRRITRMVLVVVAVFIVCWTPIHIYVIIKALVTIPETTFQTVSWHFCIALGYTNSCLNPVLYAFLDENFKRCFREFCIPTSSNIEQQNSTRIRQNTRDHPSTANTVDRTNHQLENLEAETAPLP

Compound	β-arr Max. Resp. [1, 3]	EC50 [1, 4]	EC50 [2, 5]	cAMP Max. Resp. [2, 6]	EC50 [2, 7]	other results
Cc1nccc(C2CCCCN2c2nc(Cl)ccc2F)n1 (stereo not drawn) [compound 381]	D (D represents a maximal response of < 40%)	< 0.7 µM	< 700 nM	D (D represents a maximal response of < 40%)		
Fc1cnc(Cl)nc1N1CCCCC1c1cccc2cnnn12 (stereo not drawn) [compound 333]	D (D represents a maximal response of < 40%)	< 0.7 µM		D (D represents a maximal response of < 40%)	< 700 nM	
Cc1nc(C2CCCCN2c2nc(Cl)ncc2F)no1 (stereo not drawn) [compound 409]	D (D represents a maximal response of < 40%)	< 0.7 µM		D (D represents a maximal response of < 40%)	< 700 nM	
Fc1ccc(C2CCCCN2Cc2cncc(Cl)c2)cc1Cl (stereo not drawn) [compound 147]	F (F represents a maximal response of > 60%)	> 2.1 µM		D (D represents a maximal response of < 40%)	> 2100 nM	
Fc1cnc(Cl)nc1N1CCCCC1c1ccc2ncccc2c1 (stereo not drawn) [compound 326]	D (D represents a maximal response of < 40%)	< 0.7 µM		D (D represents a maximal response of < 40%)	< 700 nM	
Fc1cccc(C2CCCCN2c2nc(Cl)ncc2F)n1 (stereo not drawn) [compound 133]	F (F represents a maximal response of > 60%)	> 2.1 µM		E (E represents a maximal response of 40-60%)	> 2100 nM	
O=S(=O)(c1ccc(Cl)cc1F)N1C2CCC(C2)C1c1ccc(F)c(Br)c1 (stereo not drawn) [Compound 184]	F (F represents a maximal response of > 60%)	> 2.1 µM	> 2100 nM	D (D represents a maximal response of < 40%)		
Fc1cnc(Cl)nc1N1CCCCC1c1cc(Cl)ccn1 (stereo not drawn) [compound 408]	D (D represents a maximal response of < 40%)	< 0.7 µM		D (D represents a maximal response of < 40%)	< 700 nM	
CNc1cccc(C2CCCCN2Cc2cc(Cl)ccc2F)n1 (stereo not drawn) [compound 168]	F (F represents a maximal response of > 60%)	> 2.1 µM		F (F represents a maximal response of > 60%)	> 2100 nM	
[2H]C1(c2cccc(C(F)(F)F)c2)C(F)CCCN1c1nc(Cl)ncc1F (stereo not drawn) [compound 207]	F (F represents a maximal response of > 60%)	0.7 to 2.1 µM		D (D represents a maximal response of < 40%)	700 to 2100 nM	β-arr. Max Resp. ([1]; maximal response for β-arrestin recruitment, Table 3): 116; EC50 ([1]; β-arrestin recruitment, Table 3, read-out: β-arr. EC50): 1.17 µM; EC50 ([2]; cAMP EC50 (nM), adenylyl cyclase inhibition, Table 3): 969 nM; cAMP Max Resp. ([2]; maximal response for adenylyl cyclase inhibition, Table 3): 34
Fc1cc(C2CCCCN2c2nc(Cl)ncc2F)cc(C(F)(F)F)c1 (single isomer, unassigned) [compound 423]		< 0.7 µM			< 700 nM	β-arr Max. Resp. [1, 8]: D (D represents a maximal response of < 40%); cAMP Max. Resp. [2, 9]: D (D represents a maximal response of < 40%)
Fc1ccc(Cl)cc1C1CCCCN1c1nc(Cl)ncc1F (stereo not drawn) [compound 400]	D (D represents a maximal response of < 40%)	< 0.7 µM		D (D represents a maximal response of < 40%)	< 700 nM	
Fc1ccnc(C2CCCCN2c2nc(Cl)ncc2F)c1 (stereo not drawn) [compound 412]	D (D represents a maximal response of < 40%)	< 0.7 µM		D (D represents a maximal response of < 40%)	< 700 nM	
Cc1ccc(C(F)(F)F)cc1C1CCCCN1c1nc(Cl)ncc1F (stereo not drawn) [compound 134]	F (F represents a maximal response of > 60%)	> 2.1 µM		D (D represents a maximal response of < 40%)	> 2100 nM	
Oc1ncnc(N2CCCCC2c2cccc(C(F)(F)F)c2)c1F (stereo not drawn) [compound 356]	D (D represents a maximal response of < 40%)	< 0.7 µM		D (D represents a maximal response of < 40%)	< 700 nM	
Fc1cnc(Cl)nc1N1CCCCC1c1ccncn1 (stereo not drawn) [compound 391]	D (D represents a maximal response of < 40%)	< 0.7 µM		D (D represents a maximal response of < 40%)	< 700 nM	
CN(C)CC(=O)N1CCN(c2nc(Cl)ncc2F)C(c2cc(F)cc(C(F)(F)F)c2)C1 (racemic) [Compound 306]	D (D represents a maximal response of < 40%)	> 2.1 µM	> 2100 nM	F (F represents a maximal response of > 60%)		
O=S(=O)(c1ccc(Cl)cc1F)N1CCCCC1c1cccc(C(F)(F)F)c1 (stereo not drawn) [Compound 25]	F (F represents a maximal response of > 60%)	> 2.1 µM	> 2100 nM	D (D represents a maximal response of < 40%)		
Cc1cnc(Cl)nc1N1CCCCC1c1cccc(C(F)(F)F)c1 (stereo not drawn) [compound 265]	F (F represents a maximal response of > 60%)	> 2.1 µM		E (E represents a maximal response of 40-60%)	> 2100 nM	
COc1cc(C2CCCCN2c2nc(Cl)ncc2F)ccc1Br (stereo not drawn) [compound 288]	F (F represents a maximal response of > 60%)	> 2.1 µM		E (E represents a maximal response of 40-60%)	> 2100 nM	
O=S(=O)(c1ccc(Cl)cc1)N1CCCCC1c1ccc2c(c1)CCO2 (racemic) [compound 66]	F (F represents a maximal response of > 60%)	> 2.1 µM	> 2100 nM	E (E represents a maximal response of 40-60%)		
Fc1cnc(Cl)nc1N1CC(F)(F)CC1c1cccc(C(F)(F)F)c1 (stereo not drawn) [compound 467]		> 2.1 µM	> 2100 nM			β-arr Max. Resp. [1, 8]: F (F represents a maximal response of > 60%); cAMP Max. Resp. [2, 9]: D (D represents a maximal response of < 40%)
Cc1cccc(S(=O)(=O)N2CCCCC2c2cccc(C(F)(F)F)c2)c1 (stereo not drawn) [Compound 27]	F (F represents a maximal response of > 60%)	> 2.1 µM	> 2100 nM	E (E represents a maximal response of 40-60%)		
Fc1ccc(Cl)cc1C1CCCCN1c1ccnc(Cl)n1 (stereo not drawn) [compound 406]	D (D represents a maximal response of < 40%)	< 0.7 µM		D (D represents a maximal response of < 40%)	< 700 nM	
Fc1cnc(Cl)nc1N1CCCCC1c1cncc(Cl)c1 (stereo not drawn) [compound 280]	F (F represents a maximal response of > 60%)			E (E represents a maximal response of 40-60%)		EC50 [2]: > 2100 nM
O=S(=O)(c1ccc(Cl)cc1)N1CCCCC1c1cncc(C(F)(F)F)c1 (racemic) [compound 83]	D (D represents a maximal response of < 40%)	> 2.1 µM	> 2100 nM	D (D represents a maximal response of < 40%)		β-arrestin Max Response ([1]; β-arrestin recruitment, activity switching by MOR PAMs): D (D represents a maximal response of < 40%); EC50 ([1]; β-arrestin recruitment, activity switching by MOR PAMs, read-out: β-arrestin EC50): > 2.1 µM; cAMP Max Resp. ([2]; adenylyl cyclase inhibition, activity switching by MOR PAMs): D (D represents a maximal response of < 40%); EC50 ([2]; adenylyl cyclase inhibition, activity switching by MOR PAMs, read-out: cAMP EC50): > 2100 nM
